Source: paper PMC6100082, “Pyridine-Ureas as Potential Anticancer Agents: Synthesis and In Vitro Biological Evaluation” (Molecules : A Journal of Synthetic Chemistry and Natural …, 2018)

Assays:
NCI 58 cell line panel = assay: NCI one-dose SRB assay, whole panel / subpanel summary; type: cell-based, human; conditions: for inhibition at 10 µM: Homo sapiens, one dose, read-out: mean inhibition (mean % growth inhibition over NCI 58 cell line panel); for Mean Growth Percent: One Dose Mean Graph, 1.00E-5 Molar
Experimental: (§1) The structures of all the newly prepared pyridine-ureas 8a–n were submitted to the National Cancer Institute (NCI) Developmental Therapeutic Program. Eight compounds 8b, 8d, 8e, 8i, 8j and 8l–n were selected to be examined for their in vitro growth inhibitory activity. The anticancer assays were carried out according to the protocol of the Drug Evaluation Branch, NCI, Bethesda. The selected pyridine-ureas were tested at one dose primary anticancer assay against a panel of approximately 58 cancer lines (concentration 10^−5 M). The tested human cancer cell lines emerged from nine different cancer subtypes: leukemia, colon, melanoma, ovarian, lung, CNS, renal, breast and prostate cancers. The sulforhodamine B (SRB) protein assay was adopted to estimate the cell viability and growth. The results were reported as mean-graph of the percentage growth of the treated cells, and presented as percentage growth inhibition (GI%) caused by the test compounds (Table 2).
(§2) The anticancer assays were performed in accordance with the protocol of the Drug Evaluation Branch, NCI, Bethesda. A 48 h drug exposure protocol was used and sulforhodamine B (SRB) protein assay was applied to estimate the cell viability and growth, as reported earlier.

COLO 205 = assay: NCI one-dose SRB assay (Colon Cancer); type: cell-based, human; conditions: for Growth Percent: COLO 205, 1.00E-5 Molar; for inhibition at 10 µM: Homo sapiens, COLO 205, 10 μM, read-out: Percentage growth inhibition (GI%)
Experimental: as §1, §2

HCC-2998 = assay: NCI one-dose SRB assay (Colon Cancer); type: cell-based, human; conditions: for Growth Percent: HCC-2998, 1.00E-5 Molar; for inhibition at 10 µM: Homo sapiens, HCC-2998, 10 μM, read-out: Percentage growth inhibition (GI%)
Experimental: as §1, §2

HCT-116 = assay: NCI one-dose SRB assay (Colon Cancer); type: cell-based, human; conditions: for Growth Percent: HCT-116, 1.00E-5 Molar; for inhibition at 10 µM: Homo sapiens, HCT-116, 10 μM, read-out: Percentage growth inhibition (GI%)
Experimental: as §1, §2

HCT-15 = assay: NCI one-dose SRB assay (Colon Cancer); type: cell-based, human; conditions: for Growth Percent: HCT-15, 1.00E-5 Molar; for inhibition at 10 µM: Homo sapiens, HCT-15, 10 μM, read-out: Percentage growth inhibition (GI%)
Experimental: as §1, §2

HT29 = assay: NCI one-dose SRB assay (Colon Cancer); type: cell-based, human; conditions: for Growth Percent: HT29, 1.00E-5 Molar; for inhibition at 10 µM: Homo sapiens, HT-29, HT29, 10 μM, read-out: Percentage growth inhibition (GI%)
Experimental: as §1, §2

KM12 = assay: NCI one-dose SRB assay (Colon Cancer); type: cell-based, human; conditions: for inhibition at 10 µM: Homo sapiens, KM12, 10 μM, read-out: Percentage growth inhibition (GI%); for Growth Percent: KM12, 1.00E-5 Molar
Experimental: as §1, §2

SW-620 = assay: NCI one-dose SRB assay (Colon Cancer); type: cell-based, human; conditions: for inhibition at 10 µM: Homo sapiens, SW-620, 10 μM, read-out: Percentage growth inhibition (GI%); for Growth Percent: SW-620, 1.00E-5 Molar
Experimental: as §1, §2

SF-295 = assay: NCI one-dose SRB assay (CNS Cancer); type: cell-based, human; conditions: for inhibition at 10 µM: Homo sapiens, SF-295, 10 μM, read-out: Percentage growth inhibition (GI%); for Growth Percent: SF-295, 1.00E-5 Molar
Experimental: as §1, §2

SF-539 = assay: NCI one-dose SRB assay (CNS Cancer); type: cell-based, human; conditions: for inhibition at 10 µM: Homo sapiens, SF-539, 10 μM, read-out: Percentage growth inhibition (GI%); for Growth Percent: SF-539, 1.00E-5 Molar
Experimental: as §1, §2

SNB-19 = assay: NCI one-dose SRB assay (CNS Cancer); type: cell-based, human; conditions: for inhibition at 10 µM: Homo sapiens, SNB-19, 10 μM, read-out: Percentage growth inhibition (GI%); for Growth Percent: SNB-19, 1.00E-5 Molar
Experimental: as §1, §2

SNB-75 = assay: NCI one-dose SRB assay (CNS Cancer); type: cell-based, human; conditions: for inhibition at 10 µM: Homo sapiens, SNB-75, 10 μM, read-out: Percentage growth inhibition (GI%); for Growth Percent: SNB-75, 1.00E-5 Molar
Experimental: as §1, §2

U251 = assay: NCI one-dose SRB assay (CNS Cancer); type: cell-based, human; conditions: for inhibition at 10 µM: Homo sapiens, U-251, U251, 10 μM, read-out: Percentage growth inhibition (GI%); for Growth Percent: U251, 1.00E-5 Molar
Experimental: as §1, §2

IGROV1 = assay: NCI one-dose SRB assay (Ovarian Cancer); type: cell-based, human; conditions: for inhibition at 10 µM: Homo sapiens, IGROV-1, IGROV1, 10 μM, read-out: Percentage growth inhibition (GI%); for Growth Percent: IGROV1, 1.00E-5 Molar
Experimental: as §1, §2

NCI/ADR-RES = assay: NCI one-dose SRB assay (Ovarian Cancer); type: cell-based, human; conditions: for Growth Percent: 1.00E-5 Molar; for inhibition at 10 µM: Homo sapiens, read-out: Percentage growth inhibition (GI%)
Experimental: as §1, §2

OVCAR-3 = assay: NCI one-dose SRB assay (Ovarian Cancer); type: cell-based, human; conditions: for inhibition at 10 µM: Homo sapiens, OVCAR-3, 10 μM, read-out: Percentage growth inhibition (GI%); for Growth Percent: OVCAR-3, 1.00E-5 Molar
Experimental: as §1, §2

OVCAR-4 = assay: NCI one-dose SRB assay (Ovarian Cancer); type: cell-based, human; conditions: for inhibition at 10 µM: Homo sapiens, OVCAR-4, 10 μM, read-out: Percentage growth inhibition (GI%); for Growth Percent: OVCAR-4, 1.00E-5 Molar
Experimental: as §1, §2

OVCAR-5 = assay: NCI one-dose SRB assay (Ovarian Cancer); type: cell-based, human; conditions: for inhibition at 10 µM: Homo sapiens, OVCAR-5, 10 μM, read-out: Percentage growth inhibition (GI%); for Growth Percent: OVCAR-5, 1.00E-5 Molar
Experimental: as §1, §2

OVCAR-8 = assay: NCI one-dose SRB assay (Ovarian Cancer); type: cell-based, human; conditions: for inhibition at 10 µM: Homo sapiens, OVCAR-8, 10 μM, read-out: Percentage growth inhibition (GI%); for Growth Percent: OVCAR-8, 1.00E-5 Molar
Experimental: as §1, §2

SK-OV-3 = assay: NCI one-dose SRB assay (Ovarian Cancer); type: cell-based, human; conditions: for inhibition at 10 µM: Homo sapiens, SK-OV-3, 10 μM, read-out: Percentage growth inhibition (GI%); for Growth Percent: SK-OV-3, 1.00E-5 Molar
Experimental: as §1, §2

BT-549 = assay: NCI one-dose SRB assay (Breast Cancer); type: cell-based, human; conditions: for Growth Percent: BT-549, 1.00E-5 Molar; for inhibition at 10 µM: Homo sapiens, BT-549, 10 μM, read-out: Percentage growth inhibition (GI%)
Experimental: as §1, §2

HS 578T = assay: NCI one-dose SRB assay (Breast Cancer); type: cell-based, human; conditions: for Growth Percent: 1.00E-5 Molar; for inhibition at 10 µM: Homo sapiens, read-out: Percentage growth inhibition (GI%)
Experimental: as §1, §2

MCF7 = assay: NCI one-dose SRB assay (Breast Cancer); type: cell-based, human; conditions: for inhibition at 10 µM: Homo sapiens, MCF7, 10 μM, read-out: Percentage growth inhibition (GI%); for Growth Percent: MCF7, 1.00E-5 Molar
Experimental: as §1, §2

MDA-MB-231 = assay: NCI one-dose SRB assay (Breast Cancer); type: cell-based, human; conditions: for inhibition at 10 µM: Homo sapiens, MDA-MB-231, 10 μM, read-out: Percentage growth inhibition (GI%); for Growth Percent: MDA-MB-231/ATCC, 1.00E-5 Molar
Experimental: as §1, §2

MDA-MB-468 = assay: NCI one-dose SRB assay (Breast Cancer); type: cell-based, human; conditions: for inhibition at 10 µM: Homo sapiens, MDA-MB-468, 10 μM, read-out: Percentage growth inhibition (GI%); for Growth Percent: MDA-MB-468, 1.00E-5 Molar
Experimental: as §1, §2

T-47D = assay: NCI one-dose SRB assay (Breast Cancer); type: cell-based, human; conditions: for Growth Percent: 1.00E-5 Molar; for inhibition at 10 µM: Homo sapiens, T47D, read-out: Percentage growth inhibition (GI%)
Experimental: as §1, §2

COc1cccc(NC(=O)Nc2ccc(-c3ccc(OC)c(OC)c3)nc2C)c1 [Compound 8m, 1-(6-(3,4-Dimethoxyphenyl)-2-methylpyridin-3-yl)-3-(3-methoxyphenyl) Urea]
inhibition at 10 µM (NCI 58 cell line panel): 8%
Mean Growth Percent (NCI 58 cell line panel): 92.83%
Growth Percent (COLO 205): 119.56%
inhibition at 10 µM (COLO 205): < 10%
Growth Percent (HCC-2998): 97.15%
inhibition at 10 µM (HCC-2998): < 10%
Growth Percent (HCT-116): 78.84%
inhibition at 10 µM (HCT-116): 22%
Growth Percent (HCT-15): 91.11%
inhibition at 10 µM (HCT-15): < 10%
Growth Percent (HT29): 75.95%
inhibition at 10 µM (HT29): 25%
inhibition at 10 µM (KM12): < 10%
Growth Percent (KM12): 96.43%
inhibition at 10 µM (SW-620): < 10%
Growth Percent (SW-620): 101.68%
inhibition at 10 µM (SF-295): < 10%
Growth Percent (SF-295): 99.68%
inhibition at 10 µM (SF-539): < 10%
Growth Percent (SF-539): 93.97%
inhibition at 10 µM (SNB-19): < 10%
Growth Percent (SNB-19): 115.50%
inhibition at 10 µM (SNB-75): < 10%
Growth Percent (SNB-75): 104.39%
inhibition at 10 µM (U251): < 10%
Growth Percent (U251): 94.15%
inhibition at 10 µM (IGROV1): < 10%
Growth Percent (IGROV1): 112.08%
Growth Percent (NCI/ADR-RES): 92.25%
inhibition at 10 µM (NCI/ADR-RES): < 10%
inhibition at 10 µM (OVCAR-3): < 10%
Growth Percent (OVCAR-3): 101.69%
inhibition at 10 µM (OVCAR-4): < 10%
Growth Percent (OVCAR-4): 126.33%
inhibition at 10 µM (OVCAR-5): < 10%
Growth Percent (OVCAR-5): 104.54%
inhibition at 10 µM (OVCAR-8): < 10%
Growth Percent (OVCAR-8): 102.37%
inhibition at 10 µM (SK-OV-3): < 10%
Growth Percent (SK-OV-3): 99.49%
Growth Percent (BT-549): 87.21%
inhibition at 10 µM (BT-549): 13%
Growth Percent (HS 578T): 99.31%
inhibition at 10 µM (HS 578T): < 10%
inhibition at 10 µM (MCF7): 10%
Growth Percent (MCF7): 90.01%
inhibition at 10 µM (MDA-MB-231): < 10%
Growth Percent (MDA-MB-231): 106.37%
inhibition at 10 µM (MDA-MB-468): < 10%
Growth Percent (MDA-MB-468): 99.00%
Growth Percent (T-47D): 81.11%
inhibition at 10 µM (T-47D): 19%
melting point: 243 to 245 °C

COc1ccc(NC(=O)Nc2ccc(-c3ccc(OC)c(OC)c3)nc2C)cc1 [Compound 8n, 1-(6-(3,4-Dimethoxyphenyl)-2-methylpyridin-3-yl)-3-(4-methoxyphenyl) Urea]
inhibition at 10 µM (NCI 58 cell line panel): 22 to 34%
Mean Growth Percent (NCI 58 cell line panel): 66.18%
Growth Percent (COLO 205): 91.95%
inhibition at 10 µM (COLO 205): < 10%
Growth Percent (HCC-2998): 83.10%
inhibition at 10 µM (HCC-2998): 17%
Growth Percent (HCT-116): 49.40%
inhibition at 10 µM (HCT-116): 51%
Growth Percent (HCT-15): 91.77%
inhibition at 10 µM (HCT-15): < 10%
Growth Percent (HT29): 68.76%
inhibition at 10 µM (HT29): 32%
inhibition at 10 µM (KM12): 55%
Growth Percent (KM12): 45.29%
inhibition at 10 µM (SW-620): 36%
Growth Percent (SW-620): 64.84%
inhibition at 10 µM (SF-295): < 10%
Growth Percent (SF-295): 101.75%
inhibition at 10 µM (SF-539): 30%
Growth Percent (SF-539): 70.63%
inhibition at 10 µM (SNB-19): 29%
Growth Percent (SNB-19): 71.47%
inhibition at 10 µM (SNB-75): 53%
Growth Percent (SNB-75): 47.52%
inhibition at 10 µM (U251): 78%
Growth Percent (U251): 22.08%
inhibition at 10 µM (IGROV1): 23%
Growth Percent (IGROV1): 77.14%
Growth Percent (NCI/ADR-RES): 84.96%
inhibition at 10 µM (NCI/ADR-RES): 16%
inhibition at 10 µM (OVCAR-3): < 10%
Growth Percent (OVCAR-3): 102.08%
inhibition at 10 µM (OVCAR-4): 71%
Growth Percent (OVCAR-4): 29.55%
inhibition at 10 µM (OVCAR-5): < 10%
Growth Percent (OVCAR-5): 98.04%
inhibition at 10 µM (OVCAR-8): 53%
Growth Percent (OVCAR-8): 47.38%
inhibition at 10 µM (SK-OV-3): 26%
Growth Percent (SK-OV-3): 74.76%
Growth Percent (BT-549): 50.44%
inhibition at 10 µM (BT-549): 50%
Growth Percent (HS 578T): 39.96%
inhibition at 10 µM (HS 578T): 61%
inhibition at 10 µM (MCF7): 35%
Growth Percent (MCF7): 65.14%
inhibition at 10 µM (MDA-MB-231): 60%
Growth Percent (MDA-MB-231): 40.48%
inhibition at 10 µM (MDA-MB-468): 17%
Growth Percent (MDA-MB-468): 83.00%
Growth Percent (T-47D): 60.36%
inhibition at 10 µM (T-47D): 40%
melting point: 253 to 254 °C
